The values that follow come from ChEMBL document CHEMBL1129488, “Controlled modification of acidity in cholecystokinin B receptor antagonists: N-(1,4-benzodiazepin-3-yl)-N'-[3-(tetrazol-5-ylamino) phenyl]ureas” (J Med Chem, 1996).

Bounds are passed on as bounds.

Data set [1] in a line: physchem. The following applies: buffer, pH 7.4.
Description: Lipophilicity was measured at pH 7.4
A short description of data set [2]: physchem.
Description: pKa value is evaluated by nonlinear regression analysis of pH-dependent partition measurements.
For data set [3] the following is noted: buffer, pH 0.
Description: The solubility is evaluated at a pH 0f 7.4
Data set [4] is described as follows: pKa value for the compound is determined by potentiometric titration. The format is physicochemical.
The target in data set [5] is T1, Cholecystokinin receptor type A (Rattus norvegicus, UniProt P30551).
T1 sequence (P30551 whole entry): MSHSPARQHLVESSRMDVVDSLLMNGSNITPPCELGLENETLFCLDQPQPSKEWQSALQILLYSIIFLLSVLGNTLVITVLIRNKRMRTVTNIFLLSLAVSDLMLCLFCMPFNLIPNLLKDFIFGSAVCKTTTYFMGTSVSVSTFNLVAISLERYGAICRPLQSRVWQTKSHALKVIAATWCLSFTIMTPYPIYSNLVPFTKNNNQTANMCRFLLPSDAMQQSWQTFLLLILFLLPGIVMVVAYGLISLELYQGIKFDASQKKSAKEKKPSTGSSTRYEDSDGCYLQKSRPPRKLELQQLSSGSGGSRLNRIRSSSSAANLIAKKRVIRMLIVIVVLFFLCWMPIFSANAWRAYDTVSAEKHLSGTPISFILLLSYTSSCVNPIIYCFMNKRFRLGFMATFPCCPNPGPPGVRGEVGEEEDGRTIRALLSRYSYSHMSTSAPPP
Description: Inhibition of [125 I]BH CCK-8S binding to Cholecystokinin type A receptor in pancreatic tissue

The nature of data set [6]: pKa value is evaluated by nonlinear regression analysis of pH-dependent partition measurements; pKa could not be reliably determined due to poor solubility at low pHs. The format is physicochemical.

As to `CN1C(=O)[C@H](NC(=O)Nc2ccc3c(c2)N(c2nn[nH]n2)CC3)N=C(c2ccccc2)c2ccccc21`, in the data set “physchem [1]”, the logD (as a rule, lipophilicity at a set pH, counting ionised and neutral species) stood at 1.38. For the same molecule, the pKa (commonly the pH at which an ionisable group is half protonated) in the data set “physchem [2]” stood at 4.8. This molecule also had a S in data set [3] of 0.87 µg/mL.

As for `O=[N+]([O-])c1ccc(CNc2nn[nH]n2)cc1`, the pKa in data set [4] was determined as 5.53.

On to `Cc1ccc(NC(=O)N[C@@H]2N=C(C3CCCCC3)c3ccccc3N(C)C2=O)cc1N(C)c1nn[nH]n1`, for which, in data set [3], the S stood at 0.49 µg/mL. Also, the IC50 (usually the concentration that gives 50% inhibition) in data set [5] was 1.6 µM.

`O=[N+]([O-])c1ccc2c(c1)CCN2c1nn[nH]n1`: in data set [4], the pKa turned out to be 4.02.

`CN1C(=O)[C@H](NC(=O)Nc2cccc(CNc3nn[nH]n3)c2)N=C(c2ccccc2)c2ccccc21` returned a pH-dependent lipophilicity (logD) in the data set “physchem [1]” of 1.47. The molecule also registered a pKa in “physchem [2]” of 5.9. Moreover, in data set [3], the S was 0.02 µg/mL. The molecule further registered an IC50 in data set [5] of 3 µM.

On to `O=[N+]([O-])c1ccc(Nc2nn[nH]n2)cc1`, for which the pKa in data set [4] came to 4.23.

As to `CN1C(=O)[C@H](NC(=O)Nc2cccc(Nc3nn[nH]n3)c2)N=C(c2ccccc2)c2ccccc21`, the logD in the data set “physchem [1]” turned out to be 0.89. In the data set “physchem [2]”, the pKa stood at 5.1. The same molecule displayed a S in data set [3] of 0.1 µg/mL. This molecule gave an IC50 in data set [5] of 3 µM.

`Cc1ccc(NC(=O)N[C@@H]2N=C(c3ccccc3)c3ccccc3N(C)C2=O)cc1Nc1nn[nH]n1`: the logD in the data set “physchem [1]” turned out to be 1.37. Further, the pKa in “physchem [2]” is 1.37. The molecule also showed a S in data set [3] of 0.88 µg/mL. In data set [5], it took 3 µM to reach half-maximal inhibition (IC50).

In data set [4], `CN(c1ccc([N+](=O)[O-])cc1)c1nn[nH]n1` yielded a pKa of 4.46.

`CN1C(=O)[C@H](NC(=O)Nc2cccc(N(C)c3nn[nH]n3)c2)N=C(C2CCCCC2)c2ccccc21`: the S in data set [3] was 60 µg/mL.

For the molecule `Cc1ccc(NC(=O)N[C@@H]2N=C(C3CCCCC3)c3ccccc3N(C)C2=O)cc1Nc1nn[nH]n1`, in data set [3], the S was found to be 57 µg/mL.

Take `CN1C(=O)[C@H](NC(=O)Nc2cccc(CNc3nn[nH]n3)c2)N=C(C2CCCCC2)c2ccccc21`: the S in data set [3] amounted to 3.7 µg/mL.

In “physchem [1]”, `CN1C(=O)[C@H](NC(=O)Nc2cccc(N(C)c3nn[nH]n3)c2)N=C(c2ccccc2)c2ccccc21` came in with a logD of 1.14. The S in data set [3] was determined as 0.16 µg/mL. In addition, the pKa result in data set [6] was “Insoluble”. The half-inhibitory concentration (IC50) in data set [5] came out at 3 µM.

In the case of `Cc1cc([N+](=O)[O-])ccc1N(C)c1nn[nH]n1`, the pKa in data set [4] was found to be 5.02.

In data set [4], `Cc1cc([N+](=O)[O-])ccc1Nc1nn[nH]n1` came in with a pKa of 4.46.

For `Cc1cccc(NC(=O)N[C@@H]2N=C(c3ccccc3)c3ccccc3N(C)C2=O)c1` [L-365260], in data set [3], the S is less than 0.002 µg/mL.
